In patent US20210127673A1, “HERBICIDES” (SYNGENTA PARTICIPATIONS AG, priority 2016, published 2021):

Legend:
Format in all cases: in vivo
Details in all cases: 1000 g/ha, evaluated after 13 days
[1] = system: Triticum aestivium (TRZAW); experiment: Pre-emergence herbicidal activity, Triticum aestivium; design: key: 5=total damage to plant; 0=no damage to plant
How it was run: (§1)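 Pots of seeds were sprayed one day after sowing (pre-emergence) with compound in acetone/water (50:50) plus 0.5% Tween 20, then grown in a glasshouse at 24/16 °C day/night, 14 h light, 65% humidity. Damage scored 0–5 (5 = total damage) after 13 days.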

Avena fatua (AVEFA) [2] = experiment: Pre-emergence herbicidal activity, Avena fatua
How it was run: as §1

[3] = system: Alopecurus myosuroides (ALOMY); experiment: Pre-emergence herbicidal activity, Alopecurus myosuroides; design: key: 5=total damage to plant; 0=no damage to plant
How it was run: as §1

[4] = system: Echinochloa crus-galli (ECHCG); experiment: Pre-emergence herbicidal activity, Echinochloa crus-galli
How it was run: as §1

Lolium perenne (LOLPE) [5] = experiment: Pre-emergence herbicidal activity, Lolium perenne
How it was run: as §1

Setaria faberi (SETFA) [6] = experiment: Pre-emergence herbicidal activity, Setaria faberi; design: key: 5=total damage to plant; 0=no damage to plant
How it was run: as §1

[7] = system: Triticum aestivium (TRZAW); experiment: Post-emergence herbicidal activity, Triticum aestivium; design: key: 5=total damage to plant; 0=no damage to plant
How it was run: (§2)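 Scoring runs 0 (no damage) to 5 (total damage), assessed 13 days after treatment. Seedlings 8 days post-sowing received an aqueous spray from acetone/water 50:50 with 0.5% Tween 20, then were kept at 24/16 °C, 14 h light, 65% humidity and watered twice daily.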

Avena fatua (AVEFA) [8] = experiment: Post-emergence herbicidal activity, Avena fatua
How it was run: as §2

[9] = system: Alopecurus myosuroides (ALOMY); experiment: Post-emergence herbicidal activity, Alopecurus myosuroides; design: key: 5=total damage to plant; 0=no damage to plant
How it was run: as §2

[10] = system: Echinochloa crus-galli (ECHCG); experiment: Post-emergence herbicidal activity, Echinochloa crus-galli; design: key: 5=total damage to plant; 0=no damage to plant
How it was run: as §2

Lolium perenne (LOLPE) [11] = experiment: Post-emergence herbicidal activity, Lolium perenne
How it was run: as §2

Setaria faberi (SETFA) [12] = experiment: Post-emergence herbicidal activity, Setaria faberi; design: key: 5=total damage to plant; 0=no damage to plant
How it was run: as §2

SMILES | Control of TRAZW after pre-emergence application (score 0-5) [1] | Control of AVEFA after pre-emergence application (score 0-5) (Avena fatua (AVEFA) [2]) | Control of ALOMY after pre-emergence application (score 0-5) [3] | Control of ECHCG after pre-emergence application (score 0-5) [4] | Control of LOLPE after pre-emergence application (score 0-5) (Lolium perenne (LOLPE) [5]) | Control of SETFA after pre-emergence application (score 0-5) (Setaria faberi (SETFA) [6]) | Control of TRAZW after post-emergence application (score 0-5) [7] | Control of AVEFA after post-emergence application (score 0-5) (Avena fatua (AVEFA) [8]) | Control of ALOMY after post-emergence application (score 0-5) [9] | Control of ECHCG after post-emergence application (score 0-5) [10] | Control of LOLPE after post-emergence application (score 0-5) (Lolium perenne (LOLPE) [11]) | Control of SETFA after post-emergence application (score 0-5) (Setaria faberi (SETFA) [12])
COCCOC(=O)Nc1ccc(-c2cncc(F)c2)nc1C(F)(F)F [Compound B59] | 0 | 2 | 1 | 4 | 2 | 3 | 1 | 3 | 1 | 5 | 3 | 4
O=C(Nc1ccc(-c2cncc(F)c2)nc1C(F)(F)F)N1CCCCC1 [Compound B51] | 0 | 1 | 0 | 2 | 1 | 5 | 0 | 3 | 0 | 4 | 3 | 5
CC(C)(C)OC(=O)N(CC1CC1)c1ccc(-c2cncc(F)c2)nc1C(F)(F)F [Compound B10] | 0 | 2 | 1 | 3 | 1 | 5 | 1 | 3 | 1 | 4 | 3 | 5
O=C(Nc1ccc(-c2cncc(F)c2)nc1C(F)(F)F)N1CC[S+]([O-])C1 (stereo not drawn) [Compound B117, N-[6-(5-fluoro-3-pyridyl)-2-(trifluoromethyl)-3-pyridyl]-1-oxo-1,3-thiazolidine-3-carboxamide] | 0 | 3 | 0 | 4 | 1 | 5 | 3 | 4 | 1 | 5 | 4 | 5
C#CC(C)(C)NC(=O)Nc1ccc(-c2cncc(F)c2)nc1C(F)(F)F [Compound B102] | 0 | 3 | 0 | 4 | 2 | 5 | 1 | 4 | 1 | 5 | 3 | 5
